# Values of other authors in article PMC7515950, “Physiologically based pharmacokinetic modeling to assess metabolic drug–drug interaction risks and inform the drug label for fedratinib” (Cancer Chemotherapy and Pharmacology, 2020).
# Read-outs that look alike come from different tables or passages of the source.
# Experiments:
# [1] = tested on: Caco-2/TC7; details: reference compound of the Simcyp permeability input, 7.4:7.4; cited from earlier work
# [2] = cancer patients, observation, cited from earlier work; for AUC GM Ratio (90% CI) / Cmax GM Ratio (90% CI): cocktail substrate with vs without fedratinib 500 mg QD
# [3] = target: T1, OATP1B1 (Homo sapiens, UniProt Q9Y6L6); details: read-out: Km of probe substrate, OATP1B1; from literature; ref [14]; cited from earlier work
# T1 sequence (Q9Y6L6 1-691): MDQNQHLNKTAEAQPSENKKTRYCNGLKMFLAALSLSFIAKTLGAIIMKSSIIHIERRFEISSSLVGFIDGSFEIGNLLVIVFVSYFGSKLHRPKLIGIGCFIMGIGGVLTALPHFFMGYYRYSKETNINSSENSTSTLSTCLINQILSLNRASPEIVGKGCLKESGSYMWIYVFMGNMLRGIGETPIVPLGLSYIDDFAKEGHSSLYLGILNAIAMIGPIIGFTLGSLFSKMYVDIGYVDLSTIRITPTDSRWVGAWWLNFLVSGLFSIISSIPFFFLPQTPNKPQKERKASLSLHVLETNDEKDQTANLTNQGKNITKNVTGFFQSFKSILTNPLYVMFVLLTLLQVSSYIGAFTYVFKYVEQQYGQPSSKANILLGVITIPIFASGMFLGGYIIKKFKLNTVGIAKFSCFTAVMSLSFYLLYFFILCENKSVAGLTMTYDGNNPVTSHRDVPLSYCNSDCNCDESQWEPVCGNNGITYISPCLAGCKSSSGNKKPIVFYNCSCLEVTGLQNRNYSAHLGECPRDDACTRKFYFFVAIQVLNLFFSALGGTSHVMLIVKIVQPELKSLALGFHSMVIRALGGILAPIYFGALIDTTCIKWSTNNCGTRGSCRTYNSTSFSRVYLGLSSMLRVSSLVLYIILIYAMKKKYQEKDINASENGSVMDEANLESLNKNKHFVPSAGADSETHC
# [4] = target: T2, OCT1 (Homo sapiens, UniProt O15245); design: method as in earlier work; details: from literature; ref [11]; read-out: Km of probe substrate, OCT1; cited from earlier work
# T2 construct: expressed in transfected cells; host or cells: CHO^Fi-hOCT1
# T2 sequence (O15245 1-554): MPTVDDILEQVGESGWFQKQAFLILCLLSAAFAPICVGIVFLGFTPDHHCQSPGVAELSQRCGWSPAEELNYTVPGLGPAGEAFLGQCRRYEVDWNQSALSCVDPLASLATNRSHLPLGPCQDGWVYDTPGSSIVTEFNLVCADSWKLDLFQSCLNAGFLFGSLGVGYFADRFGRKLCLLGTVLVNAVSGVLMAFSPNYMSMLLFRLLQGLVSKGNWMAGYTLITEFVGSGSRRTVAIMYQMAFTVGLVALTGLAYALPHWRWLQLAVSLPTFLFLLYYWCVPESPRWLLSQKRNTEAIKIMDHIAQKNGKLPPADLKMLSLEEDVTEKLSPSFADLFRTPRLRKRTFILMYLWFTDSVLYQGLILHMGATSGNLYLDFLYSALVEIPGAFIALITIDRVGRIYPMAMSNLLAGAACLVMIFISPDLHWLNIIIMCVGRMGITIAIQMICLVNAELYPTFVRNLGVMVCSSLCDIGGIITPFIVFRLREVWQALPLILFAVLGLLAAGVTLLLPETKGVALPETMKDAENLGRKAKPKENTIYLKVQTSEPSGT
# [5] = target: T3, OATP1B3 (Homo sapiens, UniProt Q9NPD5); details: cited from earlier work
# T3 sequence (Q9NPD5 1-702): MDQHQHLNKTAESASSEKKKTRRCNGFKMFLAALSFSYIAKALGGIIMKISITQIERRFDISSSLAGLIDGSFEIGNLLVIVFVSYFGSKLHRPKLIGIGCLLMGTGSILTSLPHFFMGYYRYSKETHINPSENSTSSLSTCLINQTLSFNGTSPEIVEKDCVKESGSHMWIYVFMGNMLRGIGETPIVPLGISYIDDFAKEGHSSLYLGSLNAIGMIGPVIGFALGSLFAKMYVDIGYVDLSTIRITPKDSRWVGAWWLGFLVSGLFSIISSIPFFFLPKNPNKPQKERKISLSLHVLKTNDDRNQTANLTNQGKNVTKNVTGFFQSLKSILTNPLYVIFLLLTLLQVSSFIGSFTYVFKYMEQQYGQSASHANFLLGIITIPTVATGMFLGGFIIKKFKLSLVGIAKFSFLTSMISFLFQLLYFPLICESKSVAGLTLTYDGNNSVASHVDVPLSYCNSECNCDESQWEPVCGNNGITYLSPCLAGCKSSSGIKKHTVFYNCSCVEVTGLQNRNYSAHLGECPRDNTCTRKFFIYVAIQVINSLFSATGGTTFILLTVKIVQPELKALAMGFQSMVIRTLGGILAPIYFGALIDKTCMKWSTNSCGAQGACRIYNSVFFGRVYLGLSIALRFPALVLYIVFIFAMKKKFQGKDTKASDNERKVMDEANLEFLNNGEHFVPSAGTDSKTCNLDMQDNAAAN
# [6] = target: T4, OCT2 (Homo sapiens, UniProt O15244); details: read-out: Km of probe substrate, OCT2; from literature; ref [12]; cited from earlier work
# T4 sequence (O15244 1-555): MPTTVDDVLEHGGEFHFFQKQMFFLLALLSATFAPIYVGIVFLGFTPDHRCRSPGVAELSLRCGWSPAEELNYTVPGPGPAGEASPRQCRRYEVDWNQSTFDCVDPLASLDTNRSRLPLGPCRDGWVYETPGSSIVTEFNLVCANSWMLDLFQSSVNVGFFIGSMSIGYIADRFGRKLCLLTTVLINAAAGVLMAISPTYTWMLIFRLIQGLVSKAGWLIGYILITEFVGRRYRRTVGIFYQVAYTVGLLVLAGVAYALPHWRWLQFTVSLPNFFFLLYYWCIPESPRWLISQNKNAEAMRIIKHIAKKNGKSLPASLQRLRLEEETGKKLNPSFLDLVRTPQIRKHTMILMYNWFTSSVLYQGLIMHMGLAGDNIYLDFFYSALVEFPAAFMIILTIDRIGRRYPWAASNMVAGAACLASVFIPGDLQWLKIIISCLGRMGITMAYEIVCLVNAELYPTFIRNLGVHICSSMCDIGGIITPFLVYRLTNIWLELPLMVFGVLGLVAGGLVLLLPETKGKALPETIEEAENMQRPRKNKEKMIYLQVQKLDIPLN
# [7] = target: P-gp (Homo sapiens, UniProt P08183); details: read-out: Km of probe substrate, P-gp; from literature; ref [16]; cited from earlier work
# [8] = cocktail substrate + fedratinib 500 mg QD, GM
# [9] = cocktail substrate + fedratinib 500 mg QD, Mean (SD)
# [10] = cocktail substrate alone, Mean (SD)
# Chain of P-gp (P08183 whole entry): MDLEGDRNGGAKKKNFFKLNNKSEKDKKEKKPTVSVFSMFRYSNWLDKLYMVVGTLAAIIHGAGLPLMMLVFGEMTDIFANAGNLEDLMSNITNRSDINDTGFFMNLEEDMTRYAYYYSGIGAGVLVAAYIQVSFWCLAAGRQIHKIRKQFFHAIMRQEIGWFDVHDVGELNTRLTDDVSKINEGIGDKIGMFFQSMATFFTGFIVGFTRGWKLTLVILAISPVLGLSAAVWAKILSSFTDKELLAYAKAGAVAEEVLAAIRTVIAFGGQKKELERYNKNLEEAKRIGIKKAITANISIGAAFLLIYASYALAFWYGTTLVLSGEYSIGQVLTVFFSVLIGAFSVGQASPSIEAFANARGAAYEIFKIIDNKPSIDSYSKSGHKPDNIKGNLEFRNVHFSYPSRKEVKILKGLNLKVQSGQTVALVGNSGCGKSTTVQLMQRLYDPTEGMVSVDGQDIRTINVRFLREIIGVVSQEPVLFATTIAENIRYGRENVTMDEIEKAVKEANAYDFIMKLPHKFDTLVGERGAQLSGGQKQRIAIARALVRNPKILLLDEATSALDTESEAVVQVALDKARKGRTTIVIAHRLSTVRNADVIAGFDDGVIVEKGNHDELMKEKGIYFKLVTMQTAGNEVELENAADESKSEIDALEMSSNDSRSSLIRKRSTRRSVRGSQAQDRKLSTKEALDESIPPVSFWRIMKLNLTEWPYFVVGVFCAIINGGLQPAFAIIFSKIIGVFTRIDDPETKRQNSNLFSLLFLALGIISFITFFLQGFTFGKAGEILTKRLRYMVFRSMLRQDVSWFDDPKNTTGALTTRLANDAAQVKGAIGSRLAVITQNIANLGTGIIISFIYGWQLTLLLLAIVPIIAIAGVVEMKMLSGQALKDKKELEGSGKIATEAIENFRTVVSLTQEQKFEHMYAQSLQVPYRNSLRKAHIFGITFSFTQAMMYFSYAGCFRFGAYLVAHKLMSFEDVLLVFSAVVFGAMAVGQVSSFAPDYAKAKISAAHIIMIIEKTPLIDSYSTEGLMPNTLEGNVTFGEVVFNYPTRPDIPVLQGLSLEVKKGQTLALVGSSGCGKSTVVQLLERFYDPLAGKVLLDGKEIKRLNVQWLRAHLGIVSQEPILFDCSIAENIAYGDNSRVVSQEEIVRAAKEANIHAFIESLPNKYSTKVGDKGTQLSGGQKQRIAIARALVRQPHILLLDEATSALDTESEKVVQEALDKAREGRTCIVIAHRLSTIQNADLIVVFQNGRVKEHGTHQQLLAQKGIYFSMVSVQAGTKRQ
Compound,"AUC (AUCinf) [2, 8] [ng·h/mL]","Cmax [2, 8] [ng/mL]","AUC (AUCinf) [2, 9]","Cmax [2, 9]","AUC (AUCinf) ([2]; cocktail substrate alone, GM) [ng·h/mL]","AUC (AUCinf) [2, 10]",AUC GM Ratio (90% CI) [2],Cmax GM Ratio (90% CI) [2],also measured
CC(C)NCC(O)COc1cccc2ccccc12 (stereo not drawn) [Propranolol],,,,,,,,,Reference Compound Value (PCaco-2) [1]: 43.000 10E-06 cm/s
Cc1ncc2n1-c1ccc(Cl)cc1C(c1ccccc1F)=NC2 [Midazolam],148,24.2,152 (38.6) ng/mL·h,25.9 (8.75) ng/mL,41.5,52.2 (37.9) ng/mL·h,3.84 (2.62–5.63),1.82 (1.49–2.21),"Cmax ([2]; cocktail substrate alone (midazolam 2 mg, omeprazole 20 mg, metoprolol 100 mg once), GM): 13.4 ng/mL; Cmax ([2]; cocktail substrate alone (midazolam 2 mg, omeprazole 20 mg, metoprolol 100 mg once), Mean (SD)): 14.8 (7.56) ng/mL"
C[C@]12CC[C@@H]3c4ccc(O)cc4CC[C@H]3[C@@H]1CC[C@@H]2O[C@@H]1O[C@H](C(=O)O)[C@@H](O)[C@H](O)[C@H]1O [Estradiol-17β-glucuronide],,,,,,,,,Km [3]: 8.17 µM
COCCc1ccc(OCC(O)CNC(C)C)cc1 (stereo not drawn) [Metoprolol],1180,199,1460 (938) ng/mL·h,221 (106) ng/mL,731,880 (545) ng/mL·h,1.77 (1.27–2.47),1.60 (1.25–2.05),AUC GM Ratio (90% CI) ([2]; listed as metoprolol): 1.77; Cmax GM Ratio (90% CI) ([2]; listed as metoprolol): 1.60
CC[N+](CC)(CC)CC [TEA],,,,,,,,,Km [4]: 296 µM
COc1ccc2[nH]c([S+]([O-])Cc3ncc(C)c(OC)c3C)nc2c1 (stereo not drawn) [Omeprazole],4690,537,5950 (3560) ng/mL·h,615 (286) ng/mL,1590,2210 (1740) ng/mL·h,2.82 (2.26–3.53),1.12 (0.81–1.53),AUC GM Ratio (90% CI) ([2]; listed as omeprazole): 2.82; Cmax GM Ratio (90% CI) ([2]; listed as omeprazole): 1.12
CCK8,,,,,,,,,Km [5]: 3.8 µM
CN(C)C(=N)N=C(N)N [Metformin],,,,,,,,,Km [6]: 235 µM
C[C@H]1O[C@@H](O[C@H]2[C@@H](O)C[C@H](O[C@H]3[C@@H](O)C[C@H](O[C@H]4CC[C@@]5(C)[C@H](CC[C@@H]6[C@@H]5C[C@@H](O)[C@]5(C)[C@@H](C7=CC(=O)OC7)CC[C@]65O)C4)O[C@@H]3C)O[C@@H]2C)C[C@H](O)[C@@H]1O [digoxin],,,,,,,,,Km [7]: 385 µM
